Test results taken from ChEMBL document CHEMBL3734703, “(E)-2-Cyano-3-(substituted phenyl)acrylamide analogs as potent inhibitors of tyrosinase: A linear β-phenyl-α,β-unsaturated carbonyl scaffold” (Bioorg Med Chem, 2015).
The source made the active and inactive calls. The calls are words filed in the database; no cut-off is given here.

Legend:
[1] = target: T1, Tyrosinase (Agaricus bisporus) (UniProt O42713); assay: Competitive inhibition of mushroom tyrosinase using L-tyrosine as substrate assessed as dopachrome production after 30 mins by Lineweaver-Burk plot analysis
T1 sequence (whole entry): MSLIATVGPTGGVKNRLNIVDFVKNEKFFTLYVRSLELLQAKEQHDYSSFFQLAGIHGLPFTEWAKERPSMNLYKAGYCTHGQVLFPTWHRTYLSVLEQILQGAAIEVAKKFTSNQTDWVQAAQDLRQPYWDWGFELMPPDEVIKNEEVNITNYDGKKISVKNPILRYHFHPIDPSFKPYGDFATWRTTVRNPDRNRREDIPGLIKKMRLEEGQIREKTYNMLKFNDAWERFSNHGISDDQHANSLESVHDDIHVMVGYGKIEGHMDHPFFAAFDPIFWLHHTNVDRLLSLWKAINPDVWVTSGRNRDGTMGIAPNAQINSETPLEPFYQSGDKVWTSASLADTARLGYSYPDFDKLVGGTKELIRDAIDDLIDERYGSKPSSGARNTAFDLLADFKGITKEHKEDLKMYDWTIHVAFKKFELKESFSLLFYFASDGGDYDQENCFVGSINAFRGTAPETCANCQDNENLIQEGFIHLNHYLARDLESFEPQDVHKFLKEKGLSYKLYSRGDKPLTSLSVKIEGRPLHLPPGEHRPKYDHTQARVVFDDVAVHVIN

[2] = Cytotoxicity against mouse B16F10 cells assessed as cell viability at 5 uM after 24 hrs by MTT assay relative to control; type: cell-based, B16-F10; conditions: read-out: Activity
[3] = Cytotoxicity against mouse B16F10 cells assessed as cell viability at 10 uM after 24 hrs by MTT assay relative to control; type: cell-based, B16-F10; conditions: read-out: Activity
[4] = Cytotoxicity against mouse B16F10 cells assessed as cell viability at 25 uM after 24 hrs by MTT assay relative to control; type: cell-based, B16-F10; conditions: read-out: Activity
[5] = test system: B16-F10; assay: Inhibition of alpha-MSH-mediated melanin biosynthesis in mouse B16F10 cells after 24 hrs; type: functional, cell-based
[6] = target: T2, Tyrosinase (Mus musculus) (UniProt P11344); assay: Inhibition of tyrosinase in alpha-MSH-stimulated mouse B16F10 cells assessed as L-DOPA oxidation after 24 hrs; type: cell-based; conditions: B16-F10
T2 sequence (whole entry): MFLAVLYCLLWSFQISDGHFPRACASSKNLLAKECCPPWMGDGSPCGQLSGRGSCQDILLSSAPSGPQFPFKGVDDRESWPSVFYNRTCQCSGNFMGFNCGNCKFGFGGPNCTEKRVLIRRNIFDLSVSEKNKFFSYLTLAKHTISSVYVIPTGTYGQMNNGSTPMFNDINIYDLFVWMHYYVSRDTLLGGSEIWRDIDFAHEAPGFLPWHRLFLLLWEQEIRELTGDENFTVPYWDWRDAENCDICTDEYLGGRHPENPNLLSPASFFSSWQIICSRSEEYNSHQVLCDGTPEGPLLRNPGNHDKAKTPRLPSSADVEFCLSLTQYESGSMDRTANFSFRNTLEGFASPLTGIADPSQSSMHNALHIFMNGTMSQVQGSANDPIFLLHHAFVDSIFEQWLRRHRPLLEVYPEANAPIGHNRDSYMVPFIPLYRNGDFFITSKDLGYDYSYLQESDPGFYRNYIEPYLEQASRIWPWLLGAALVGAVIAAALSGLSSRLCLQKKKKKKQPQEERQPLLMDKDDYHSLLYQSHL

[7] = test system: B16-F10; assay: Inhibition of alpha-MSH-mediated melanin biosynthesis in mouse B16F10 cells at 25 uM after 24 hrs; type: functional, cell-based

N#C/C(=C\c1ccc(O)c(O)c1)C(N)=O
inhibition [1]: Dose-dependent effect
viability at 24 h, 5 µM [2]: 99.6%
viability at 24 h, 10 µM [3]: 98.6%
viability at 24 h, 25 µM [4]: 96.9%
inhibition [5]: Dose-dependent effect
inhibition [6]: Dose-dependent effect

O=c1cc(CO)occ1O
inhibition [7]: Active
